According to patent US7147872B2, “Environmentally compatible processes compositions and materials treated thereby” (Pimi Marion Holdings, Ltd., priority 1998, dated 2006):

Tested on: potato seeds
Assay: Dry fog treatment of potato seeds to prevent sprouting, H2O2 with Ag and Cu ion (Example 19)
Type: in vivo
Details: H2O2 500 PPM, Ag ion 0, Cu ion 0; 90% RH, 10° C.
Source text: The results were as follows:

OO [H2O2, hydrogen peroxide]
Sprouting (%) one month: 8%
Sprouting (%) three months: 32%
Sprouting (%) two months: 22%
